In patent US9550739B2, “Molecules having certain pesticidal utilities, and intermediates, compositions, and processes related thereto” (priority 2014, dated 2017):

Assays:
Type in all cases: in vivo
[1] = test system: Cabbage Looper (Trichoplusia ni, TRIPNI) ("CL"); experiment: Bioassays on Cabbage Looper (CL), 128-well diet tray assay; details: for mortality at 50 µg/cm2: Trichoplusia ni, 168 h, read-out: CL % Control (or Mortality) rating
Protocol: (§1) Certain molecules disclosed in this document were tested against BAW and CEW using procedures described in the following examples. In the reporting of the results, the “BAW & CL Rating Table” was used (See Table Section).
Bioassays on CL were conducted using a 128-well diet tray assay. one to five second instar CL larvae were placed in each well (3 mL) of the diet tray that had been previously filled with 1 mL of artificial diet to which 50 μg/cm^2 of the test compound (dissolved in 50 μL of 90:10 acetone-water mixture) had been applied (to each of eight wells) and then allowed to dry. Trays were covered with a clear self-adhesive cover and held at 25° C., 14:10 light-dark for five to seven days. Percent mortality was recorded for the larvae in each well; activity in the eight wells was then averaged. The results are indicated in the table entitled “Table ABC: Biological Results” (See Table Section).

[2] = test system: Beet Armyworm (Spodoptera exigua, LAPHEG) ("BAW"); experiment: Bioassays on Beet Armyworm (BAW), 128-well diet tray assay; details: second instar BAW larvae, 50 μg/cm^2 on artificial diet, five to seven days, 25° C.; for mortality at 50 µg/cm2: Spodoptera exigua, 168 h, read-out: BAW % Control (or Mortality) rating
Protocol: as §1
Bioassays on BAW were conducted using a 128-well diet tray assay. one to five second instar BAW larvae were placed in each well (3 mL) of the diet tray that had been previously filled with 1 mL of artificial diet to which 50 μg/cm^2 of the test compound (dissolved in 50 μL of 90:10 acetone-water mixture) had been applied (to each of eight wells) and then allowed to dry. Trays were covered with a clear self-adhesive cover and held at 25° C., 14:10 light-dark for five to seven days. Percent mortality was recorded for the larvae in each well; activity in the eight wells was then averaged. The results are indicated in the table entitled “Table ABC: Biological Results” (See Table Section).

[3] = test system: Yellow Fever Mosquito (Aedes aegypti, AEDSAE) ("YFM"); details: about 1 day-old larvae, 4000 ppm master solution diluted, 3 days, room temperature
Protocol: Certain molecules disclosed in this document were tested against YFM using procedures described in the following paragraph. In the reporting of the results, the “YFM Rating Table” was used (See Table Section).
Master plates containing 400 μg of a molecule dissolved in 100 μL of dimethyl sulfoxide (DMSO) (equivalent to a 4000 ppm solution) are used. A master plate of assembled molecules contains 15 μL per well. To this plate, 135 μL of a 90:10 water:acetone mixture is added to each well. A robot (Biomek® NXP Laboratory Automation Workstation) is programmed to dispense 15 μL aspirations from the master plate into an empty 96-well shallow plate (“daughter” plate). There are 6 reps (“daughter” plates) created per master. The created daughter plates are then immediately infested with YFM larvae.
The day before plates are to be treated, mosquito eggs are placed in Millipore water containing liver powder to begin hatching (4 g. into 400 mL). After the daughter plates are created using the robot, they are infested with 220 μL of the liver powder/larval mosquito mixture (about 1 day-old larvae). After plates are infested with mosquito larvae, a non-evaporative lid is used to cover the plate to reduce drying. Plates are held at room temperature for 3 days prior to grading. After 3 days, each well is observed and scored based on mortality.

Compound | mortality at 50 µg/cm2 [1] [%] | mortality at 50 µg/cm2 [2] [%] | YFM % Control (or Mortality) rating [3] | CL % Control (or Mortality) rating ([1]; second instar CL larvae, 50 μg/cm^2 on artificial diet, five to seven days, 25° C.) | BAW % Control (or Mortality) rating [2]
COc1ccccc1-c1cccc(C(=O)N(C)c2ccc(-c3ncn(-c4ccc(OC(F)(F)F)cc4)n3)cc2)c1 [F19, 2′-methoxy-N-methyl-N-(4-(1-(4-(trifluoromethoxy)phenyl)-1H-1,2,4-triazol-3-yl)phenyl)-[1,1′-biphenyl]-3-carboxamide] | 50 to 100 | 50 to 100 | A (80-100) |  | 
COc1ccccc1-c1cccc(C(=O)Nc2ccc(-c3ncn(-c4ccc(OC(F)(F)F)cc4)n3)cc2)c1 [F22, 2′-Methoxy-N-(4-(1-(4-(trifluoromethoxy)phenyl)-1H-1,2,4-triazol-3-yl)phenyl)-[1,1′-biphenyl]-3-carboxamide] | 50 to 100 | 50 to 100 | A (80-100) |  | 
O=C(Nc1ccc(-c2ncn(-c3ccc(OC(F)(F)C(F)(F)F)cc3)n2)cc1)c1ccc(F)c(-c2ccccc2)c1 [F40, 6-Fluoro-N-(4-(1-(4-(perfluoroethoxy)phenyl)-1H-1,2,4-triazol-3-yl)phenyl)-[1,1′-biphenyl]-3-carboxamide] | 50 to 100 | 0 | D (No activity noticed in this bioassay) |  | 
O=C(NCc1ccc(-c2ncn(-c3ccc(OC(F)(F)F)cc3)n2)cc1)c1cccc(-c2ccccc2)c1 [F57, N-(4-(1-(4-(trifluoromethoxy)phenyl)-1H-1,2,4-triazol-3-yl)benzyl)-[1,1′-biphenyl]-3-carboxamide] | 50 to 100 | 0 | D (No activity noticed in this bioassay) |  | 
O=C(Nc1ccc(-c2ncn(-c3ccc(OC(F)(F)F)cc3)n2)cc1)c1cc(Cl)cc(-c2ccccc2)c1 [F43, 5-Chloro-N-(4-(1-(4-(trifluoromethoxy)phenyl)-1H-1,2,4-triazol-3-yl)phenyl)-[1,1′-biphenyl]-3-carboxamide] | 50 to 100 | 50 to 100 | D (No activity noticed in this bioassay) |  | 
O=C(Nc1ccc(-c2ncn(-c3ccc(OC(F)(F)F)cc3)n2)cc1)c1ccc(F)c(-c2ccccc2)c1 [F11, 6-Fluoro-N-(4-(1-(4-(trifluoromethoxy)phenyl)-1H-1,2,4-triazol-3-yl)phenyl)-[1,1′-biphenyl]-3-carboxamide] | 50 to 100 | 50 to 100 | D (No activity noticed in this bioassay) |  | 
Cc1ccccc1-c1cc(F)cc(C(=O)N(C)c2ccc(-c3ncn(-c4ccc(OC(F)(F)C(F)(F)F)cc4)n3)cc2)c1 [F29, 5-fluoro-N,2′-dimethyl-N-(4-(1-(4-(perfluoroethoxy)phenyl)-1H-1,2,4-triazol-3-yl)phenyl)-[1,1′-biphenyl]-3-carboxamide] | 0 | 50 to 100 | D (No activity noticed in this bioassay) |  | 
O=C(Nc1ccc(-c2ncn(-c3ccc(OC(F)(F)F)cc3)n2)cc1)c1cccc(-c2ccccc2Cl)c1 [F30, 2′-Chloro-N-(4-(1-(4-(trifluoromethoxy)phenyl)-1H-1,2,4-triazol-3-yl)phenyl)-[1,1′-biphenyl]-3-carboxamide] | 50 to 100 | 50 to 100 | D (No activity noticed in this bioassay) |  | 
CCN(C(=O)c1ccc(F)c(-c2ccccc2OC)c1)c1ccc(-c2ncn(-c3ccc(OC(F)(F)F)cc3)n2)cc1 [F64, N-Ethyl-6-fluoro-2′-methoxy-N-(4-(1-(4-(trifluoromethoxy)phenyl)-1H-1,2,4-triazol-3-yl)phenyl)-[1,1′-biphenyl]-3-carboxamide] | 50 to 100 | 50 to 100 | D (No activity noticed in this bioassay) |  | 
COc1ccccc1-c1cccc(C(=O)Nc2ccc(-c3ncn(-c4ccc(OC(C)C)cc4)n3)cc2)c1 [F5, N-(4-(1-(4-isopropoxyphenyl)-1H-1,2,4-triazol-3-yl)phenyl)-2′-methoxy-[1,1′-biphenyl]-3-carboxamide] | 50 to 100 | 50 to 100 | B (More than 0-Less than 80) |  | 
COc1ccccc1-c1cc(C(=O)Nc2ccc(-c3ncn(-c4ccc(C(F)(F)F)cc4)n3)cc2)ccc1F [F20, 6-fluoro-2′-methoxy-N-(4-(1-(4-(trifluoromethyl)phenyl)-1H-1,2,4-triazol-3-yl)phenyl)-[1,1′-biphenyl]-3-carboxamide] | 50 to 100 | 50 to 100 | A (80-100) |  | 
6-Methoxy-N-(4-(1-(4-(trifluoromethoxy)phenyl)-1H-1,2,4-triazol-3-yl)phenethyl)-[1,1′-biphenyl]-3-carboxamide [F56] |  |  | A (80-100) | A (50-100) | A (50-100)
COc1ccccc1-c1cccc(C(=S)Nc2ccc(-c3ncn(-c4ccc(OC(F)(F)C(F)(F)F)cc4)n3)cc2)c1 [F23, 2′-methoxy-N-(4-(1-(4-(perfluoroethoxy)phenyl)-1H-1,2,4-triazol-3-yl)phenyl)-[1,1′-biphenyl]-3-carbothioamide] | 50 to 100 | 50 to 100 | A (80-100) |  | 
CCCN(C(=O)c1ccc(F)c(-c2ccccc2OC)c1)c1ccc(-c2ncn(-c3ccc(OC(F)(F)F)cc3)n2)cc1 [F65, 6-Fluoro-2′-methoxy-N-propyl-N-(4-(1-(4-(trifluoromethoxy)phenyl)-1H-1,2,4-triazol-3-yl)phenyl)-[1,1′-biphenyl]-3-carboxamide] | 50 to 100 | 50 to 100 | D (No activity noticed in this bioassay) |  | 
CC(=O)c1ccccc1-c1cccc(C(=O)Nc2ccc(-c3ncn(-c4ccc(OC(F)(F)C(F)(F)F)cc4)n3)cc2)c1 [F9, 2′-Acetyl-N-(4-(1-(4-(perfluoroethoxy)phenyl)-1H-1,2,4-triazol-3-yl)phenyl)-[1,1′-biphenyl]-3-carboxamide] | 50 to 100 | 50 to 100 | A (80-100) |  | 
COc1ccccc1-c1cc(C(=O)NCCc2ccc(-c3ncn(-c4ccc(OC(F)(F)F)cc4)n3)cc2)ccc1F [F54, 6-Fluoro-2′-methoxy-N-(4-(1-(4-(trifluoromethoxy)phenyl)-1H-1,2,4-triazol-3-yl)phenethyl)-[1,1′-biphenyl]-3-carboxamide] | 50 to 100 | 50 to 100 |  |  | 
Cc1cccc(C)c1-c1cccc(C(=O)Nc2ccc(-c3ncn(-c4ccc(OC(F)(F)C(F)(F)F)cc4)n3)cc2)c1 [F31, 2′,6′-Dimethyl-N-(4-(1-(4-(perfluoroethoxy)phenyl)-1H-1,2,4-triazol-3-yl)phenyl)-[1,1′-biphenyl]-3-carboxamide] | 50 to 100 | 50 to 100 | D (No activity noticed in this bioassay) |  | 
COc1ccc(C(=O)Nc2ccc(-c3ncn(-c4ccc(C(F)(F)F)cc4)n3)cc2)cc1-c1ccccc1 [F61, 6-Methoxy-N-(4-(1-(4-(trifluoromethyl)phenyl)-1H-1,2,4-triazol-3-yl)phenyl)-[1,1′-biphenyl]-3-carboxamide] | 50 to 100 | 50 to 100 | A (80-100) |  | 
O=C(Nc1ccc(-c2ncn(-c3ccc(OC(F)(F)F)cc3)n2)cc1)c1ccc(Cl)c(-c2ccccc2)c1 [F34, 6-Chloro-N-(4-(1-(4-(trifluoromethoxy)phenyl)-1H-1,2,4-triazol-3-yl)phenyl)-[1,1′-biphenyl]-3-carboxamide] | 50 to 100 | 50 to 100 | D (No activity noticed in this bioassay) |  | 
